Values quoted from earlier work in patent US11419828B2, “Hair care terpinen 4-ol (T4O) composition for the treatment of demodex mites on scalp” (priority 2021, dated 2022).

What was measured:
[1] = at levels up to 75%
Demodex mites = settings: 75% alcohol, 10% povidone-iodine, erythromycin
Demodex = settings: 38% concentration of terpinen-4-ol, over a period of 4 weeks

| Compound | Demodex mites' resistance to antiseptic agent (Demodex mites) | other results |
| --- | --- | --- |
| OCCCO [Propanediol, Propanediol 1,3] |  | potential to irritate or sensitize skin [1]: low potential to irritate or sensitize skin |
| CCO [alcohol] | resistant |  |
| CC[C@H]1OC(=O)[C@H](C)[C@@H](O[C@H]2C[C@@](C)(OC)[C@@H](O)[C@H](C)O2)[C@H](C)[C@@H](O[C@@H]2O[C@H](C)C[C@H](N(C)C)[C@H]2O)[C@](C)(O)C[C@@H](C)C(=O)[C@H](C)[C@@H](O)[C@]1(C)O [erythromycin] | resistant |  |
| CC1=CCC(O)(C(C)C)CC1 (centres unmarked) [terpinen-4-ol, Terpinen-4-ol] |  | reduction of Demodex (Demodex): reduce Demodex effectively |
| povidone-iodine | resistant |  |
